Experimental data as given in patent US8916607B2, “Use of piperphentonamine or salts thereof in manufacture of medicaments for treating brain diseases” (Guangzhou Municipal Zhongwei Biotechnology Limited Company, priority 2009, dated 2014).
Marks after values point to notes of the source that are not given here.

What was measured:
[1] = test system: ischemia reperfusion injury of mouse brain; assay: SOD activity, MDA and GSH content of brain homogenate after cerebral ischemia reperfusion; assay type: in vivo, Kunming mice
Method: Ischemia reperfusion method in the mouse and the administration method are the same as above. After ischemia reperfusion is completed, executing by decollating, removing the brain and making homogenate by phosphate buffer in 0° C., determining the activity of SOD by pyrogallol autoxidation method, the content of MDA by TBA method, and the content of GSH by DTNB method, quantitate the protein by Coomassie brilliant blue method.

[2] = test system: infective brain edema of rats (pertussis bacteria liquid); assay: infective cerebral edema by pertussis bacteria liquid: brain water, sodium and potassium ion content; assay type: in vivo, SD rats; set-up: Na^+ / K^+: unit not given here; details: pretreatment 0.5 mg/kg iv daily, two days; 4 h after bacteria liquid
[3] = test system: cerebral ischemia/reperfusion injury in mice; assay: focal cerebral ischemia reperfusion injury model in mice (suture method), TTC infarction area; assay type: in vivo; details: ischemia 2 h, reperfusion 24 h
Method: Focal cerebral ischemia reperfusion injury model is made in mice by using suture method, being ischemia for 2 h, then reperfusing for 24 h, and it proves that piperphentonamine hydrochloride has protective effect on ischemia-reperfusion cerebral injury.
Mouse is anesthetized by injecting 10% chloral hydrate (350 mg/kg) in intraperitoneal, being intravenously administered 1 mg/kg, 5 mg/kg piperphentonamine hydrochloride or 20 u/kg coenzyme A, (COA), making the cerebral artery ischemia like as the method of example 6. Pulling out nylon thread from the internal carotid artery after the operation in 2 hours, until the end of the nylon thread is at bifurcation of the common carotid artery. Reperfusing for 24 hours. Except for not inserting a thread, the rest of steps for the false operation group are same as the above-mentioned. After reperfusion for 24 h, decapitating and taking the brain of survived mice, rapidly putting in −20° C. freezer for 5 min, then removing, quickly cutting coronal slices of 2.0 mm thickness from forward to back on the operating table, putting the slices in phosphate buffer solution with 1% TTC immediately, incubating for 30 min in avoiding light at room temperature. Flip brain slices to make them touch staining solution uniformly every 10 minute, and scanning and observing the dyeing results.
The local cerebral ischemia model of mice was established by using thread bolt method, to validate that piperphentonamine acetate has protective effect on experimental cerebral ischemia animal.

[4] = test system: cerebral hemorrhage in rats induced by collagenase; assay: cerebral hemorrhage (ICH) model induced by collagenase: neurology score; assay type: in vivo, Wistar rats
Method: Animals are randomly divided into five groups: sham operation 24 h group; cerebral hemorrhage (Intracerebral Haemorrhage, ICH)+physiological saline group (model); ICH+piperphentonamine hydrochloride (JBTA, 2 mg/kg) group, called as high dose group (h); ICH+piperphentonamine hydrochloride (JBTA, 0.5 mg/kg) group, called as low dose group (1); ICH+nimodipine (Nim, 0.5 mg/kg) group. The last four groups are divided into 4 h, 8 h, 12 h, 24 h as four time subgroups respectively. Physiological saline solution, piperphentonamine hydrochloride and nimodipine are intravenously injected from rat tail before the ICH model is established for 30 minutes, once a day. Injecting slowly, the total amount of drug liquid is controlled in 1 ml/200 g body weight: physiological saline solution also being administered in 1 ml/200 g body weight. Each group has 7 Wistar rats.
The specific steps are as following: after the experimental rats are anesthetized by injecting chloral hydrate (350 mg/kg) in intraperitoneal, and being supinely immobilized in a stereotaxic instrument, and make the rat anterior fontanelle and posterior fontanelle in the same plane according to localization method reported by BAO Xinmin, etc. Being locally disinfected by iodine, incising in the midmost of scalp, scissoring the periosteum, exposing the anterior fontanelle, drilling a 1 mm diameter hole with thickness close to duramater in 3 mm left to the midline by number five needle. Inserting needle along the hole by the micro syringe fixed on a stereotaxic, the depth of needle insertion is 5.8 mm (i.e., the caudate nucleus position), slowly injecting collagenase VI 0.5 U. Injection time is 3 min, keeping for 5 min after injection, then pull the needle out, suturing the skin, and putting the rat into cage and feed. Inserting the needle and not injecting drugs in sham operation group, the remaining operations is the same as the above.
After animals wake up, scoring nerve function defect of each group immediately according to the grading classification standards of nerve defect reported by Bedersog (litter improved).
Choosing the animals with the score of 3 and more into the experiment, the animals are bred in different cages, eat and drink normally. Temperature is controlled in 20 to 25° C., score in 4 h, 8 h, 12 h, 24 h after establishment of the model.
Divide the animals randomly into five groups: sham operation (sham) 24 h group; ICH+normal saline group (model); ICH+piperphentonamine maleate (4 mg/kg) group, namely high dose group (h); ICH+piperphentonamine maleate (2 mg/kg) group, namely low dose group (1); ICH+nimodipine (0.5 mg/kg) group. The last four groups were divided into four time subgroup of 4 h, 8 h, 12 h and 24 h. Physiological solution, piperphentonamine maleate and nimodipine were injected intravenous from rat tail vein 30 minutes before the ICH model made, once a day. Inject slowly, the total amount of drug liquid was controlled in 1 ml/200 g body weight: normal saline was also administered in 1 ml/200 g body weight. Each group has seven Wistar rats.

[5] = test system: cerebral hemorrhage in rats induced by collagenase; assay: ICH model induced by collagenase: histopathological observation; assay type: in vivo, Wistar rats; details: large dose (2 mg/kg) pretreatment
Method: Influence of piperphentonamine hydrochloride on pathological morphology of cerebral hemorrhage in rats was observed. Each group animals were selected randomly, anesthetized deeply by chloral hydrate at predetermined time point, decollated and the brain were taken out rapidly, then, the brain tissue slices with hematoma (about 5 mm) were cut, and put into 10% formaldehyde solution immediately, fixed for 24 h followed by dehydration by graded ethanol, transparentizing by xylene, immersing in paraffin, embedding, slicing (5 μm), HE staining and sealing. The pathological changes area and the pathological change of the adjacent brain tissue were observed by optical microscope.

CN(CCC(=O)/C=C/c1ccc(O)cc1)CCc1ccc2c(c1)OCO2.Cl [piperphentonamine hydrochloride, Piperphentonamine hydrochloride]
GSH ([1]; 20 mg/kg): 10.34 ± 3.17 mg/g pr
MDA ([1]; 20 mg/kg): 4.48 ± 1.03 nmol/g pr
SOD ([1]; 20 mg/kg): 0.34 ± 0.02 Ku/g pr
GSH ([1]; 40 mg/kg): 13.1 ± 4.34 mg/g pr
MDA ([1]; 40 mg/kg): 3.74 ± 0.67 nmol/g pr
SOD ([1]; 40 mg/kg): 0.37 ± 0.02 Ku/g pr
GSH ([1]; 80 mg/kg): 14.77 ± 4.61 mg/g pr
MDA ([1]; 80 mg/kg): 3.53 ± 0.76 nmol/g pr
SOD ([1]; 80 mg/kg): 0.42 ± 0.04 Ku/g pr
K^+ [2]: 436.3 ± 43.9
Na^+ [2]: 181.1 ± 26.1
water content of brain (%) [2]: 69.8 ± 0.44^3) %
The percentage of infarction area occupied the entire coronal plane (%) ([3]; 1 mg/kg iv): 19.78 ± 2.61 %
The percentage of infarction area occupied the entire coronal plane (%) ([3]; 5 mg/kg iv): 16.55 ± 2.32 %
neurological score ([4]; 0.5 mg/kg iv 30 min before ICH, 4 h): 4.5 ± 0.87
neurological score ([4]; 0.5 mg/kg iv 30 min before ICH, 8 h): 4.29 ± 1.02
neurological score ([4]; 0.5 mg/kg iv 30 min before ICH, 12 h): 3.65 ± 1.19
neurological score ([4]; 0.5 mg/kg iv 30 min before ICH, 24 h): 3.21 ± 1.61
neurological score ([4]; 2 mg/kg iv 30 min before ICH, 4 h): 4.07 ± 0.74
neurological score ([4]; 2 mg/kg iv 30 min before ICH, 8 h): 3.86 ± 1.19
neurological score ([4]; 2 mg/kg iv 30 min before ICH, 12 h): 2.36 ± 0.8*^Δ
neurological score ([4]; 2 mg/kg iv 30 min before ICH, 24 h): 1.71 ± 0.57**^Δ
pathological morphology of cerebral hemorrhage [5]: tissue edema and inflammatory cell infiltration after cerebral hemorrhage were reduce obviously
